Experimental data taken from ChEMBL document CHEMBL1158295, “Five new monotetrahydrofuran ring acetogenins from the leaves of Annona muricata” (J Nat Prod, 1996).
Values after ≈ are worked out from the molar mass of the structure shown.

Columns and labels:
A498 = test: Cytotoxicity against human A498 cells; format: functional; settings: read-out: ED50 (the source's name)
HT-29 = test: Cytotoxicity against human HT29 cells; format: functional; settings: read-out: ED50 (the source's name)
Artemia = test: Toxicity to brine shrimp; format: organism-based; settings: in vivo
MIA PaCa-2 = test: Cytotoxicity against human MIAPaCa2 cells; format: functional; settings: read-out: ED50 (the source's name)
A549 = test: Cytotoxicity against human A549 cells; format: functional; settings: read-out: ED50 (the source's name)
PC-3 = test: Cytotoxicity against human PC3 cells; format: functional; settings: read-out: ED50 (the source's name)
MCF7 = test: Cytotoxicity against human MCF7 cells; format: functional; settings: read-out: ED50 (the source's name)

Row | Compound | EC50 (A498) | EC50 (HT-29) | LC50 (Artemia) | EC50 (MIA PaCa-2) | EC50 (A549) | EC50 (PC-3) | EC50 (MCF7)
1 | CCCCCCCCCCCC[C@@H](O)[C@H](O)CC[C@H](O)[C@@H]1CC[C@@H](C[C@H](O)CCCCC[C@@H](O)CC2=C[C@H](C)OC2=O)O1 [ANNOPENTOCIN A] | 0.607 µg/mL (≈ 0.99 µM) | 1.63 µg/mL (≈ 2.66 µM) | 8.9 ppm | 0.0358 µg/mL (≈ 0.0584 µM) | 0.171 µg/mL (≈ 0.279 µM) | 1.14 µg/mL (≈ 1.86 µM) | 17.9 µg/mL (≈ 29.3 µM)
2 | CCCCCCCCCCCC[C@H](O)[C@@H](O)CC[C@H](O)[C@@H]1CC[C@@H](C[C@H](O)CCCCC[C@@H](O)CC2=C[C@H](C)OC2=O)O1 [ANNOPENTOCIN B] | 0.379 µg/mL (≈ 0.618 µM) | 1.64 µg/mL (≈ 2.68 µM) | 11.2 ppm | 0.162 µg/mL (≈ 0.264 µM) | 0.0274 µg/mL (≈ 0.0447 µM) | 0.212 µg/mL (≈ 0.346 µM) | 3.56 µg/mL (≈ 5.81 µM)
3 | CCCCCCCCCCCC[C@H](O)[C@H](O)CC[C@H](O)[C@@H]1CC[C@@H](C[C@H](O)CCCCC[C@@H](O)CC2=C[C@H](C)OC2=O)O1 [ANNOPENTOCIN C] | 0.258 µg/mL (≈ 0.421 µM) | 1.24 µg/mL (≈ 2.02 µM) | 13.8 ppm | 0.428 µg/mL (≈ 0.698 µM) | 0.0206 µg/mL (≈ 0.0336 µM) | 0.228 µg/mL (≈ 0.372 µM) | 2.97 µg/mL (≈ 4.85 µM)
4 | COc1cccc2c1C(=O)c1c(O)c3c(c(O)c1C2=O)C[C@@](O)(C(=O)CO)C[C@@H]3O[C@H]1C[C@H](N)[C@H](O)[C@H](C)O1 [DOXORUBICIN] | 0.0462 µg/mL (≈ 0.085 µM) | 0.0498 µg/mL (≈ 0.0916 µM) | 2.57 ×10⁻¹ ppm | 0.00423 µg/mL (≈ 0.00778 µM) | 0.00428 µg/mL (≈ 0.00787 µM) | 0.0583 µg/mL (≈ 0.107 µM) | 0.495 µg/mL (≈ 0.911 µM)
